Test results: patent US20250320189A1, “NEW DERIVATIVES FOR TREATING TRPM3 MEDIATED DISORDERS” (Katholieke Universiteit Leuven, priority 2022, published 2025)

The compounds below were run against T1, mouse TRPM3α2 (mTRPM3) ion channel (Mus musculus, UniProt J9SQF3) (assay: Monitoring the TRPM3 ion channel driven Ca2+ uptake (Fluo-4 AM assay)). Conditions: mTRPM3alpha2 overexpressing flip-in HEK293 cells, stimulated with Pregnenolone sulfate (PS) 50 μM.
T1 construct: expressed in transfected cells; host or cells: flip-in (Flp-In) HEK293
Format: cell-based
Description: In order to monitor the inhibition of the mouse TRPM3α2 (mTRPM3) ion channel by the compounds of the invention, a cellular system making use of an mTRPM3alpha2 or hTRPM3 overexpressing cell line (flip-in HEK293) was used. The TRPM3 channel was stimulated/opened with Pregnenolone sulfate (PS) (50 μM) which results in Ca^2+ influx.
For mTRPM3, the intracellular Ca^2+ was measured with a Calcium responsive dye, Fluor-4 AMV ester (Invitrogen). Cells were cultured until a confluence of 80-90%, washed with Versene (Invitrogen) and detached from the surface by a short incubation with 0.05% Trypsin (Invitrogen). The trypsination process was stopped by the addition of complete cell culture medium (DMEM, glutamax, 10% FCS, NEAA,Pen-Strep). Cells were collected and resuspended in Krebs buffer without Calcium at RT.
Prior the cell seeding (±2000 cells/well into a black, 384 well plate (Greiner)) the diluted compound was added in the assay plate, together with the PS dissolved in Krebs buffer containing Calcium. […] Directly after cell addition the plates were read on an Envision fluorescence reader (PerkinElmer) by an Excitation of 485 nm and emission at 535 nm.
Channel inhibition was calculated compared to a non-PS stimulated control versus a condition stimulated with PS (50 μM) with vehicle. The ability of the compounds of the invention to inhibit this activity was determined as: Percentage inhibition=[1−((RFU determined for sample with test compound present−RFU determined for sample with positive control inhibitor) divided by (RFU determined in the presence of vehicle−RFU determined for sample with positive control inhibitor))]*100.
The activities of the Example compounds tested are depicted in the table below. The activity ranges A, B and C refer to IC50 values in the Fluo-4 AM assay as follows: “A”: IC50<1 μM; “B”: 1 μM≤IC50≤20 μM and “C”: IC50>20 μM

T1 sequence (J9SQF3 1-1709 isoform J9SQF3-12): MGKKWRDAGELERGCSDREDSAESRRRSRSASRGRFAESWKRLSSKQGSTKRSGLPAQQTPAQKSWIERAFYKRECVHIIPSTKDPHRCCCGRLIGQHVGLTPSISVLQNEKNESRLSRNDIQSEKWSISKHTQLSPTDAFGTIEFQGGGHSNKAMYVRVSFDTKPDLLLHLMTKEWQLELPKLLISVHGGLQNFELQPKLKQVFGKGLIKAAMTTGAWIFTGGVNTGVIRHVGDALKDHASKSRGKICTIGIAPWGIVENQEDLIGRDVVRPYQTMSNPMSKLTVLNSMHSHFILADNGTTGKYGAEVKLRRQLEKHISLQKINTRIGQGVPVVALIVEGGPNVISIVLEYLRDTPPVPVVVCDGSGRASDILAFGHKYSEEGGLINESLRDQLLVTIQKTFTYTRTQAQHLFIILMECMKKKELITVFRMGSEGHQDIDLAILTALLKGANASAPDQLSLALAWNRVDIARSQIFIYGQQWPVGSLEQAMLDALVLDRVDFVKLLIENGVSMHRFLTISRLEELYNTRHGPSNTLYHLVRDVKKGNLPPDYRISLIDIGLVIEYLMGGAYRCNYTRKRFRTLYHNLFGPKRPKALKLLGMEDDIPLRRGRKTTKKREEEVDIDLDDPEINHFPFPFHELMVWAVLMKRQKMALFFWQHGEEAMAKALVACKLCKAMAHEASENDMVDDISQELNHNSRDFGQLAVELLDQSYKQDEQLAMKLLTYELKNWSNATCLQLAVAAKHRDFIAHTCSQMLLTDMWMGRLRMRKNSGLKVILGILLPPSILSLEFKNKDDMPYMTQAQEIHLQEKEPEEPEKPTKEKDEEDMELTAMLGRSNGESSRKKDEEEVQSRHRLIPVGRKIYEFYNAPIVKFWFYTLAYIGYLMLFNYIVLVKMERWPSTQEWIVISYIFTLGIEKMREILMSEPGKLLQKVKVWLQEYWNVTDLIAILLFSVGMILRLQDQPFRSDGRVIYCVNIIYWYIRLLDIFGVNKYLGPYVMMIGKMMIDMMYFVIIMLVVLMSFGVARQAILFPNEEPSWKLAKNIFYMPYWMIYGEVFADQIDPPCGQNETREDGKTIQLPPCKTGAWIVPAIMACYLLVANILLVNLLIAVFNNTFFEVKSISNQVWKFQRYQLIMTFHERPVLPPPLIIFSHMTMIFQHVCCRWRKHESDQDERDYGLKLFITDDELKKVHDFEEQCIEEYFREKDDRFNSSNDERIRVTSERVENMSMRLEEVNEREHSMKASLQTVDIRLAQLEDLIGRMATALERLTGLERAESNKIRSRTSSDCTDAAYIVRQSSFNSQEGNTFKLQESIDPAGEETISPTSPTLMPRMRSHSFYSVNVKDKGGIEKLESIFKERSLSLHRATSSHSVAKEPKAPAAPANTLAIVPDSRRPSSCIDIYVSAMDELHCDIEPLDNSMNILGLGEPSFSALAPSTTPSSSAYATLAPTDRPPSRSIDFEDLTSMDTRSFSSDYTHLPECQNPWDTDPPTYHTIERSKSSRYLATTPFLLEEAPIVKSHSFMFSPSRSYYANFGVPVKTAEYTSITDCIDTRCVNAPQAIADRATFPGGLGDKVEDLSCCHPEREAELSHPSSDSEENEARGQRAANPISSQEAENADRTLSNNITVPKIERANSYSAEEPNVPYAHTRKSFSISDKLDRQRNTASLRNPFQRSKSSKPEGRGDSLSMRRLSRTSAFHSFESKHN

| IC50 | SMILES |
| --- | --- |
| 1000 to 20000 nM | Cc1oc2ccc(OCC3CC(F)(F)C3)cc2c1C(=O)NC(C)(CO)C(N)=O (single isomer, unassigned) [Cpd 054 - En1, 2-({5-[(3,3-difluorocyclobutyl)methoxy]-2-methyl-1-benzofuran-3-yl}formamido)-3-hydroxy-2-methylpropanamide] |
| < 1000 nM | Cc1oc2ccc(OCC3(C(F)F)CC3)cc2c1C(=O)N[C@H](C(N)=O)[C@@H](C)O [Cpd 011, (2S,3R)-2-[(5-{[1-(difluoromethyl)cyclopropyl]methoxy}-2-methyl-1-benzofuran-3-yl)formamido]-3-hydroxybutanamide] |
| 1000 to 20000 nM | Cc1oc2ccc(OCC3(C(F)F)CC3)cc2c1C(=O)NC1(C(N)=O)CCOC1 (single isomer, unassigned) [Cpd 036 - En1, N-(3-carbamoyloxolan-3-yl)-5-{[1-(difluoromethyl)cyclopropyl]methoxy}-2-methyl-1-benzofuran-3-carboxamide] |
| 1000 to 20000 nM | Cc1oc2ccc(OCC3CC3(F)F)cc2c1C(=O)NC1CCNCC1(F)F (single isomer, unassigned) [Cpd 031 - En1, 5-[(2,2-difluorocyclopropyl)methoxy]-N-(3,3-difluoropiperidin-4-yl)-2-methyl-1-benzofuran-3-carboxamide] |
| < 1000 nM | Cc1oc2ccc(OCC3CC3(F)F)cc2c1C(=O)NC(CO)CC(F)(F)F (single isomer, unassigned) [Cpd 057 - En2, 5-[(2,2-difluorocyclopropyl)methoxy]-2-methyl-N-(4,4,4-trifluoro-1-hydroxybutan-2-yl)-1-benzofuran-3-carboxamide] |
| < 1000 nM | Cc1oc2ccc(OCC3CC3(F)F)cc2c1C(=O)NC1CCNCC1(F)F (single isomer, unassigned) [Cpd 031 - En4, 5-[(2,2-difluorocyclopropyl)methoxy]-N-(3,3-difluoropiperidin-4-yl)-2-methyl-1-benzofuran-3-carboxamide] |
| < 1000 nM | Cc1oc2ccc(OC[C@@H]3C[C@@H]4C[C@@H]4C3)cc2c1C(=O)NC(C)(CO)C(N)=O (single isomer, unassigned) [Cpd 050 - En2, Cis-2-{[5-({bicyclo[3.1.0]hexan-3-yl}methoxy)-2-methyl-1-benzofuran-3-yl]formamido}-3-hydroxy-2-methylpropanamide] |
| < 1000 nM | Cc1oc2ccc(OCC3CC3)cc2c1C(=O)NC(C)(CO)CC(F)F (single isomer, unassigned) [Cpd 046 - En1, 5-(cyclopropylmethoxy)-N-(4,4-difluoro-1-hydroxy-2-methylbutan-2-yl)-2-methyl-1-benzofuran-3-carboxamide] |
| < 1000 nM | Cc1oc2ccc(OCC3(C(F)(F)F)CC3)cc2c1C(=O)NC(C)(CO)C(N)=O (single isomer, unassigned) [Cpd 048 - En1, 3-hydroxy-2-methyl-2-[(2-methyl-5-{[1-(trifluoromethyl)cyclopropyl]methoxy}-1-benzofuran-3-yl)formamido]propanamide] |
| < 1000 nM | Cc1oc2cc(F)c(OCC3CC3)cc2c1C(=O)NC(C)(CO)C(N)=O (single isomer, unassigned) [Cpd 045 - En1, 2-{[5-(cyclopropylmethoxy)-6-fluoro-2-methyl-1-benzofuran-3-yl]formamido}-3-hydroxy-2-methylpropanamide] |
| 1000 to 20000 nM | Cc1oc2ccc(OCC3CC3)cc2c1C(=O)NC1CCNCC1(F)F (single isomer, unassigned) [Cpd 024-En1, 5-(cyclopropylmethoxy)-N-(3,3-difluoropiperidin-4-yl)-2-methyl-1-benzofuran-3-carboxamide] |
| < 1000 nM | NC(=O)[C@H](CO)NC(=O)c1c(C2CC2)oc2ccc(OCC3CC3)cc12 [Cpd 004, (2S)-2-{[2-cyclopropyl-5-(cyclopropylmethoxy)-1-benzofuran-3-yl]formamido}-3-hydroxypropanamide] |

Continued, compound first:

| SMILES | IC50 |
| --- | --- |
| Cc1oc2ccc(OCC3CC3)cc2c1C(=O)NC(C)(CO)CC(F)F (single isomer, unassigned) [Cpd 046 - En2, 5-(cyclopropylmethoxy)-N-(4,4-difluoro-1-hydroxy-2-methylbutan-2-yl)-2-methyl-1-benzofuran-3-carboxamide] | < 1000 nM |
| Cc1oc2ccc(OCC3CC3)cc2c1C(=O)NC1CCCNC1=O (single isomer, unassigned) [Cpd 055 - En2, 5-(cyclopropylmethoxy)-2-methyl-N-(2-oxopiperidin-3-yl)-1-benzofuran-3-carboxamide] | 1000 to 20000 nM |
| Cc1oc2ccc(OCC3CC3)cc2c1C(=O)NC1(C(N)=O)COC1 [Cpd 034, N-(3-carbamoyloxetan-3-yl)-5-(cyclopropylmethoxy)-2-methyl-1-benzofuran-3-carboxamide] | < 1000 nM |
| Cc1oc2ccc(OCC3CC3)cc2c1C(=O)NC1CCCNC1=O (single isomer, unassigned) [Cpd 055 - En1, 5-(cyclopropylmethoxy)-2-methyl-N-(2-oxopiperidin-3-yl)-1-benzofuran-3-carboxamide] | < 1000 nM |
| Cc1oc2ccc(OCC3CC3)cc2c1C(=O)NC1CCN(C)CC1 [Cpd 021, 5-(cyclopropylmethoxy)-2-methyl-N-(1-methylpiperidin-4-yl)-1-benzofuran-3-carboxamide] | 1000 to 20000 nM |
| Cc1oc2cc(F)c(OCC3CC3)cc2c1C(=O)NC(C)(CO)C(N)=O (single isomer, unassigned) [Cpd 045 - En2, 2-{[5-(cyclopropylmethoxy)-6-fluoro-2-methyl-1-benzofuran-3-yl]formamido}-3-hydroxy-2-methylpropanamide] | < 1000 nM |
| Cc1oc2ccc(OCC3(C(F)F)CC3)cc2c1C(=O)NC(C)(CO)C(N)=O (single isomer, unassigned) [Cpd 014 - En1, 2-[(5-{[1-(difluoromethyl)cyclopropyl]methoxy}-2-methyl-1-benzofuran-3-yl)formamido]-3-hydroxy-2-methylpropanamide] | < 1000 nM |
| Cc1oc2ccc(OCC3CC3(C)C)cc2c1C(=O)NC(C)(CO)C(N)=O (single isomer, unassigned) [Cpd 049 - En1, 2-({5-[(2,2-dimethylcyclopropyl)methoxy]-2-methyl-1-benzofuran-3-yl}formamido)-3-hydroxy-2-methylpropanamide] | < 1000 nM |
| Cc1oc2ccc(OCC(F)F)cc2c1C(=O)NC(C)(CO)C(N)=O (single isomer, unassigned) [Cpd 041 - En2, 2-{[5-(2,2-difluoroethoxy)-2-methyl-1-benzofuran-3-yl]formamido}-3-hydroxy-2-methylpropanamide] | 1000 to 20000 nM |
| Cc1oc2ccc(OCC3CCC3)cc2c1C(=O)N[C@@H](CO)C(N)=O [Cpd 006, (2S)-2-{[5-(cyclobutylmethoxy)-2-methyl-1-benzofuran-3-yl]formamido}-3-hydroxypropanamide] | < 1000 nM |
| Cc1oc2ccc(OCC3CCC3)cc2c1C(=O)NC1CCNCC1(F)F (single isomer, unassigned) [Cpd 019 - En2, 5-(cyclobutylmethoxy)-N-(3,3-difluoropiperidin-4-yl)-2-methyl-1-benzofuran-3-carboxamide] | < 1000 nM |
| Cc1oc2ccc(OCC3CCCCC3)cc2c1C(=O)NC1CCN(C)CC1 [Cpd 020, 5-(cyclohexylmethoxy)-2-methyl-N-(1-methylpiperidin-4-yl)-1-benzofuran-3-carboxamide] | > 20000 nM |
